Measurements reported in PMC6511062, “Preclinical candidate for the treatment of visceral leishmaniasis that acts through proteasome inhibition” (Proceedings of the National Academy of Sciences of the …, 2019).
≈ marks a conversion by molar mass, not a printed value.

Key:
[1] = CAD (charged aerosol detector) solubility
[2] = Solubility in fasted simulated intestinal fluid (FaSSIF); details: fasted simulated intestinal fluid (FaSSIF), fassif
[3] = test system: L. donovani intramacrophage amastigotes; assay: L. donovani intramacrophage assay (amastigotes in differentiated THP-1 cells); format: cell-based, Leishmania donovani; details: Leishmania donovani; L. donovani amastigotes in differentiated THP-1 cells; read-out: Intramacrophage EC50
Protocol: T. cruzi4, Leishmania donovani axenic amastigote, cidal axenic amastigote and intra-
macrophage drug sensitivity assays were conducted as previously described5,6. […]
5. Intrinsic clearance (CLint) […]
6. Pharmacokinetic studies. […]

[4] = Intrinsic clearance in mouse liver microsomes; format: in vitro ADME
Protocol: page 13: 4. Parasite assays T. cruzi4, Leishmania donovani axenic amastigote, cidal axenic amastigote and intra- macrophage drug sensitivity assays were conducted as previously described5,6. a. […] Instead of a single readout at 72 h, multiple identical plates were used and read at different time points (24, 48, 72 h). Rate of kill curves showing the luminescence signal at each time point for each concentration were plotted. 5. […] The rate of intrinsic clearance (CLint) of each test compound was then calculated using the following calculation: CLint(mL/min/g liver) = k x V x Microsomal protein yield Where V (mL/mg protein) is the incubation volume/mg protein added and microsomal protein yield is taken as 52.5 mg protein/g liver. Verapamil (0.5 μM) was used as a positive control to confirm acceptable assay performance. 6. Pharmacokinetic studies. a. Mouse and dog PK Mouse pharmacokinetic studies were conducted in male CD-1 mice and male beagle dogs. 3 animals per group were used for each study performed. A dose of 3 mg/kg was administered intravenously, in a bolus form to mice and infused over a 30 min period to dogs. For all the intravenous studies compound were dissolved in 5% DMSO/20% kleptose in saline. A dose of 10 mg/kg was orally administered by gavage to the two species in a suspension of 1% methylcellulose to investigate oral pharmacokinetics. S13

[5] = test system: L. donovani promastigotes; assay: microbe, parasite or virus in culture; format: cell-based, Leishmania donovani
Protocol: 9. Mode of action studies a. Cell lines and culture conditions […]
c. Generation of drug-resistant parasites […]
donovani in the continuous presence of this compound. Starting at a sub-lethal […]
After a total of 120 days in
Genomic DNA was harvested from three independently generated L. donovani resistant clones and an age match control, as previously described27. PCR was performed using Platinum PCR Supermix (Invitrogen), as per manufacturer’s […]
generated using primers SubunitB4FW and SubunitB4RV, then sequenced using primer SubunitB4FW (Table S6). To sequence the β5 subunit (LdBPK_361730.1), an […]
sequenced using primer SubunitB5FW. PCR amplification and DNA sequencing were performed in triplicate for each independently generated cell line. The Leishmania donovani BPK282A1 sequences of the two subunits were identified in TriTrypDB and […]
e. Generation of overexpression constructs and LdBOB transgenic cell lines The genes encoding the mutated versions of the β4 (LdBPK_360340.1) and the β5 […]
parasites, were synthesised (GeneArt, Thermo Fischer Scientific). The synthetic genes, flanked by BamHI sites were cloned into the equivalent site of pIR1-SAT. The accuracy of all assembled constructs was verified by sequencing.
Mid-log-phase L. donovani promastigotes (LdBOB) were transfected with overexpression constructs using the Human T-Cell Nucleofector kit and the Amaxa Nucleofector electroporator (program V-033). Following transfection, cells were […]
to appropriate drug selection (100 µg/mL nourseothricin). Cloned cell lines were […]
selection for one passage prior to experiments. […]

[6] = test system: THP-1 cells; assay: Mammalian cell growth inhibition (THP-1); format: cell-based; details: Homo sapiens
Excerpt: We hypothesized that, in view of their structural similarity, 1 and 2 probably shared the same mechanism of action.

[7] = test system: Salmonella typhimurium TA1535, TA1537, TA98, TA100 and Escherichia coli WP2uvrA(pKM101); assay: Bacterial mutation screening assay (Ames test), overall outcome; format: cell-based; details: presence and absence of S9-mix
Protocol: i. Bacterial Mutation (Ames) Assay
Compound 6 was tested in a bacterial mutation screening assay (Ames test) with Salmonella typhimurium TA1535, TA1537, TA98, TA100 and Escherichia coli WP2uvrA(pKM101) in the presence and absence of an exogenous mammalian oxidative metabolism system (S9-mix). The maximum concentration tested and […]
Compound 6a was tested in a bacterial mutation screening assay (Ames test) with […]
Compound 7a was tested in a bacterial mutation screening assay (Ames test) with […]
The bacterial mutation screening assay was a plate incorporation test carried out as previously described15 and according to current methodology. […]

[8] = Leishmania donovani, RES II-resistant cells
[9] = Leishmania donovani, WT promastigotes

Row | SMILES | solubility [1] | solubility [2] | EC50 [3] | CLint [4] | EC50 [5, 8] | EC50 [5, 9] | EC50 ([5]; Leishmania donovani, WT, overexpression experiment (Fig. 3D)) | EC50 ([5]; Leishmania donovani, β4MUT cells (overexpressing β4 T30A)) | EC50 ([5]; Leishmania donovani, β5MUT cells (overexpressing β5 G197C)) | resistance of compound 7-resistant clones ([5]; resistant clones vs WT) | reduction of susceptibility on overexpression of mutated β5 subunit ([5]; β5 G197C overexpression vs WT) | EC50 [6] | CLint (intrinsic clearance when incubated with mouse liver microsomes) [4] | AMES [7] | EC50 ([5]; WT promastigotes)
1 | O=C(Nc1ccc(F)c(-c2cn3nc(-c4ccccc4)cnc3n2)c1)N1CCCC1 [Compound 7] | 7 µg/mL (≈ 17.4 µM) | 1 µg/mL (≈ 2.48 µM) | 0.35 µM | 1.7 mL/min/g | > 1 µM | 0.0035 ± 9e-05 µM | 0.0094 ± 0.00014 µM | 0.0112 ± 0.0002 µM | 0.0376 ± 0.0006 µM | > 100 fold | fourfold | > 50 µM | – | – | –
2 | O=C(Nc1ccc(F)c(-c2ccn3c(N4CCOCC4)cnc3n2)c1)N1CCCC1 [Compound 8] | 231 µg/mL (≈ 563 µM) | 180 µg/mL (≈ 439 µM) | 1.6 µM | 0.77 mL/min/g | > 1 µM | 0.0146 ± 0.0003 µM | – | – | – | – | – | > 50 µM | 0.8 mL/min per gram | negative | 0.014 µM
